From patent US5085739A, “Separation of the propyl alcohols from water by azeotropic or extractive distillation” (priority 1991, dated 1992)
Where a name gives a salt, the structure may show the parent alone.

Key:
[1] = vapor-liquid equilibrium still, isopropanol-water azeotrope with agent; conditions: for Relative Volatility: isopropanol from water, agent in vapor-liquid equilibrium still, water as overhead
Excerpt: In every case, the starting material was the propanol-water azeotrope. The relative volatilities are listed for each of the agents.

[2] = vapor-liquid equilibrium still, n-propanol-water azeotrope with agent; conditions: for Relative Volatility: n-propanol from water; for liquid composition, n-propanol / liquid composition, water / vapor composition, n-propanol / vapor composition, water: butoxypropanol four hours, n-amyl acetate 14 hours
Excerpt: The data in Table 2, 3, 5, 6 and 7 were obtained in a vapor-liquid equilibrium still. In every case, the starting material was the propanol-water azeotrope. The relative volatilities are listed for each of the agents.

[3] = glass perforated plate rectification column, n-propanol from water; type: physicochemical
Protocol: A solution comprising 288 grams of n-propanol and 112 grams of water was placed in the stillpot of the perforated plate column. When refluxing began, an extractive agent comprising n-butyl acetate was pumped into the column at a rate of 15/min/ml. The temperature of the extractive agent as it entered the column was 85° C. After establishing the feed rate of the extractive agent, the heat input to the n-propanol-water in the stillpot was adjusted to give a total reflux rate of 40 ml/min. After two hours of operation, the overhead and bottoms samples of approximately two ml. were collected and analysed.
Two hundred grams of the n-propanol-water azeotrope and 85 grams of n-amyl formate as the azeotrope former were charged to the 7.3 theoretical plate column and refluxed at total reflux for four hours.

[4] = glass perforated plate rectification column (7.3 theoretical plates), isopropanol from water; type: physicochemical; conditions: for Relative Volatility: extractive mode, 2 hrs, 7.3 theoretical plates; for Weight % Isopropanol, Bottoms / Weight % Water, Bottoms / Weight % Isopropanol, Overhead / Weight % Water, Overhead: rectification column
Protocol: A solution comprising 175 grams of isopropanol and 25 grams of water was placed in the stillpot of a 7.3 theoretical plate perforated plate column. […] The temperature of the extractive agent as it entered the column was 75° C. After establishing the feed rate of the extractive agent, the heat input to the isopropanol-water in the stillpot was adjusted to give a total reflux rate of 40 ml/min.
After two hours of operation, the overhead and bottoms samples of approximately two ml. were collected and analysed by gas chromatography.

[5] = as above; type: physicochemical; conditions: azeotropic
[6] = extractive distn., water as overhead
[7] = extractive distn., * brings n-propanol out as overhead

## OCCCCCO [1,5-Pentanediol]
[1]
  Relative Volatility: 1.22
[2]; [6]
  Relative Volatility: 1.22

## OCCCCCCO [1,6-Hexanediol]
[3]; extractive mode, 2 hrs
  Relative Volatility: 1.11
[3]; rectification column
  Weight % Water, Bottoms: 23.6 Weight %
  Weight % n-Propanol, Bottoms: 76.4 Weight %
[3]; rectification column, overhead
  Weight % Water, Overhead: 38.6 Weight %
  Weight % n-Propanol, Overhead: 61.4 Weight %
[2]; [6]
  Relative Volatility: 1.31

## CCCCO [1-Butanol]
[4]
  Relative Volatility: 1.20
  Weight % Isopropanol, Bottoms: 87.9 Weight %
  Weight % Water, Bottoms: 12.1 Weight %
  Weight % Isopropanol, Overhead: 65.3 Weight %
  Weight % Water, Overhead: 34.7 Weight %

## CCC(C)O (centres unmarked) [2-Butanol]
[1]
  Relative Volatility: 1.36

## CCCCCC(C)=O [2-Heptanone]
[1]
  Relative Volatility: 1.32
[2]; [6]
  Relative Volatility: 1.88

## CCCCCCC(C)O (centres unmarked) [2-Octanol]
[1]
  Relative Volatility: 1.30

## CCCC(C)=O [2-Pentanone]
[1]
  Relative Volatility: 1.38

## CCCCC(=O)CC [3-Heptanone]
[2]; azeotropic distn.
  Relative Volatility: 4.3

## CC(C)CCO [3-Methyl-1-butanol]
[1]
  Relative Volatility: 1.54

## CC(=O)C(C)C [3-Methyl-2-butanone]
[1]
  Relative Volatility: 1.24

## CCCCCC(=O)CC [3-Octanone]
[1]
  Relative Volatility: 1.22

## CC(=O)CC(C)C [4-Methyl-2-pentanone]
[1]
  Relative Volatility: 1.36
[4]
  Relative Volatility: 1.45
  Weight % Isopropanol, Bottoms: 82.3 Weight %
  Weight % Water, Bottoms: 17.7 Weight %
  Weight % Isopropanol, Overhead: 23.2 Weight %
  Weight % Water, Overhead: 76.8 Weight %
[3]; extractive mode, 2 hrs
  Relative Volatility: 1.45
[2]; azeotropic distn.
  Relative Volatility: 1.3

## CCCCCOC=O [Amyl Formate]
[3]; azeotropic mode, 4 hrs
  Relative Volatility: 1.23
[3]; rectification column
  Weight % Water, Bottoms: 7.3 Weight %
  Weight % n-Propanol, Bottoms: 25.7 Weight %
[3]; rectification column, azeotropic
  Weight % Agent, Bottoms: 67.0 Weight %
[3]; rectification column, azeotropic, listed as n-amyl formate
  Weight % Agent, Bottoms: 67 Weight %
[3]; rectification column, overhead
  Weight % Water, Overhead: 40.3 Weight %
  Weight % n-Propanol, Overhead: 29.9 Weight %
[3]; rectification column, overhead, azeotropic
  Weight % Agent, Overhead: 29.8 Weight %

## COc1ccccc1 [Anisole]
[1]
  Relative Volatility: 1.54
[2]; [6]
  Relative Volatility: 2.0

## N#Cc1ccccc1 [Benzonitrile]
[2]; azeotropic distn.
  Relative Volatility: 1.5

## CCCCOC(=O)c1ccccc1 [Butyl benzoate]
[1]
  Relative Volatility: 1.36

## CCCCOC(=O)CCC [Butyl butyrate]
[1]
  Relative Volatility: 1.39

## OC1CCCCCCCCCCC1 [Cyclododecanol]
[2]; [6]
  Relative Volatility: 1.43

## CCOCCOCCOC(C)=O [Diethylene glycol ethyl ether acetate]
[2]; [6]
  Relative Volatility: 1.3

## OCCOCCO [Diethylene glycol]
[1]
  Relative Volatility: 1.80

## CCCC(=O)OCC [Ethyl butyrate]
[1]
  Relative Volatility: 1.46

## O=C1OCCO1 [Ethylene carbonate]
[2]; [7]
  Relative Volatility: 1.3

## CCOCCOC(C)=O [Ethylene glycol ethyl ether acetate]
[2]; [6]
  Relative Volatility: 1.37

## COCCO [Ethylene glycol methyl ether]
[1]
  Relative Volatility: 1.60

## OCCO [Ethylene glycol]
[2]; [7]
  Relative Volatility: 1.7

## CCCCCCOC(C)=O [Hexyl acetate]
[1]
  Relative Volatility: 1.31
[2]; azeotropic distn.
  Relative Volatility: 3.4

## CCCCCCO [Hexyl alcohol]
[1]
  Relative Volatility: 1.32
[2]; [6]
  Relative Volatility: 1.44

## CC(=O)OCC(C)C [Isobutyl acetate]
[3]; rectification column
  Weight % Water, Bottoms: 58.8 Weight %
  Weight % n-Propanol, Bottoms: 41.2 Weight %
[3]; rectification column, overhead
  Weight % Water, Overhead: 26.1 Weight %
  Weight % n-Propanol, Overhead: 73.9 Weight %

## CCCC(=O)OCC(C)C [Isobutyl butyrate]
[2]; azeotropic distn.
  Relative Volatility: 1.2

## CC(C)COC(=O)C(C)C [Isobutyl isobutyrate]
[1]
  Relative Volatility: 1.61

## CC(C)CCCCCCCO [Isodecyl alcohol]
[2]; [6]
  Relative Volatility: 1.30

## CC(=O)C=C(C)C [Mesityl oxide]
[1]
  Relative Volatility: 1.47
[2]; azeotropic distn.
  Relative Volatility: 1.2

## COC(=O)c1ccccc1 [Methyl benzoate]
[1]
  Relative Volatility: 1.50
[2]; [6]
  Relative Volatility: 1.70

## CC(=O)CCC(C)C [Methyl isoamyl ketone]
[1]
  Relative Volatility: 1.32

## O=[N+]([O-])c1ccccc1 [Nitrobenzene]
[1]
  Relative Volatility: 1.32
[2]; [6]
  Relative Volatility: 1.21

## CCC(=O)c1ccccc1 [Propiophenone]
[1]
  Relative Volatility: 1.31

## CCCOCC(C)O (centres unmarked) [Propoxypropanol]
[3]; extractive mode, 2 hrs
  Relative Volatility: 1.21
[3]; rectification column
  Weight % Water, Bottoms: 30 Weight %
  Weight % n-Propanol, Bottoms: 70 Weight %
[3]; rectification column, overhead
  Weight % Water, Overhead: 63.5 Weight %
  Weight % n-Propanol, Overhead: 36.5 Weight %

## CCCOC(=O)CCC [Propyl butyrate]
[1]
  Relative Volatility: 1.72
[1]; refluxed six hours
  liquid composition, isopropanol: 85.3%
  liquid composition, water: 14.7%
  vapor composition, isopropanol: 77.1%
  vapor composition, water: 22.9%
[2]; azeotropic distn.
  Relative Volatility: 3.6

## CC(C)COCC(C)O (centres unmarked) [Propylene glycol isobutyl ether]
[1]
  Relative Volatility: 1.29

## CCCCCCCCCCCO [Undecyl alcohol]
[2]; [6]
  Relative Volatility: 1.39

## C=COCCCC [Vinyl n-butyl ether]
[4]
  Weight % Isopropanol, Bottoms: 80.3 Weight %
  Weight % Water, Bottoms: 5.1 Weight %
  Weight % Isopropanol, Overhead: 28.5 Weight %
  Weight % Water, Overhead: 14.5 Weight %
[5]; bottoms
  Weight % Agent, Bottoms: 14.6 Weight %
[5]; overhead
  Weight % Agent, Overhead: 57.0 Weight %

## CC(O)c1ccccc1 (stereo not drawn) [alpha-Methyl benzyl alcohol]
[2]; [6]
  Relative Volatility: 1.48

## CCCCCOC(C)=O [n-Amyl acetate]
[1]
  Relative Volatility: 1.30
[2]
  liquid composition, n-propanol: 67.3%
  liquid composition, water: 32.7%
  vapor composition, n-propanol: 58%
  vapor composition, water: 42%
[2]; azeotropic distn.
  Relative Volatility: 1.5

## CCCCOC(C)=O [n-Butyl acetate]
[1]
  Relative Volatility: 1.28
[3]; extractive mode, 2 hrs, * n-propanol comes off as overhead
  Relative Volatility: 1.32
[3]; rectification column
  Weight % Water, Bottoms: 73.7 Weight %
  Weight % n-Propanol, Bottoms: 26.3 Weight %
[3]; rectification column, overhead
  Weight % Water, Overhead: 27.7 Weight %
  Weight % n-Propanol, Overhead: 72.3 Weight %
[2]; [7]
  Relative Volatility: 1.7

## CCCCCCCCCCO [n-Decanol]
[1]
  Relative Volatility: 1.38

## CCCCCCOC=O [n-Hexyl formate]
[1]
  Relative Volatility: 1.52

## Butoxypropanol
[3]; rectification column
  Weight % Water, Bottoms: 15.9 Weight %
  Weight % n-Propanol, Bottoms: 84.1 Weight %
[3]; rectification column, overhead
  Weight % Water, Overhead: 50.1 Weight %
  Weight % n-Propanol, Overhead: 49.9 Weight %
[2]
  liquid composition, n-propanol: 77.2%
  liquid composition, water: 22.8%
  vapor composition, n-propanol: 60.5%
  vapor composition, water: 39.5%
